Article PMC5705272 (Neurobiology of aging, 2017)

Biological target: T1, PKC-λ/ι (PKC-ι) (Homo sapiens, UniProt P41743)
T1 sequence (P41743 2-596): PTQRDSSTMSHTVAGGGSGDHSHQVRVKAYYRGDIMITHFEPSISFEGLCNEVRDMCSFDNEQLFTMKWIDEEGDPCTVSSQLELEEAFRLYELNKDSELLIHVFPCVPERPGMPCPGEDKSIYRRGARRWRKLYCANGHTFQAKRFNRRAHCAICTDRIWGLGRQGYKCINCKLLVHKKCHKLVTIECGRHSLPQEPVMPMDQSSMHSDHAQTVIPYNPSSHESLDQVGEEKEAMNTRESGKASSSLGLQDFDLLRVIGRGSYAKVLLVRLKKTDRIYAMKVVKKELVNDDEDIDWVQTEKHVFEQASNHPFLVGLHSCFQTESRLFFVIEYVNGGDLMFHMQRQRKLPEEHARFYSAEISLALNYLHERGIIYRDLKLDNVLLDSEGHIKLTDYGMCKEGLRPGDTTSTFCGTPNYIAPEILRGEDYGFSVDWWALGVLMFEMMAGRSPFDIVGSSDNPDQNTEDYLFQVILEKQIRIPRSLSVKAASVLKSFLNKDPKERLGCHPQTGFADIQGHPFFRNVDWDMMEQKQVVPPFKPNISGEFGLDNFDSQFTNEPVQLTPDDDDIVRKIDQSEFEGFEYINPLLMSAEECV
Format: cell-based

With `NC(=O)c1ncn([C@@H]2C[C@H](COP(=O)(O)O)[C@@H](O)[C@H]2O)c1N` [ICAPP, 1H-imidazole-4-carboxamide,5-amino]-[2,3-dihydroxy-4-[(phosphono-oxy)methyl]cyclopentane-[1R-(1a,2b,3b,4a)]] the IC50 was 1 to 10 nM.
